Test results published in ChEMBL document CHEMBL1155915, “Anticonvulsant activity of some xanthone derivatives” (Bioorg Med Chem, 2008).
The source made the active and inactive calls. No cut-off for these calls is given here.

Key:
[1] = species on record: Mus musculus; assay: Protective index, ratio of TD50 for mouse by rotarod test to ED50 for mouse by scMET test; format: functional
[2] = system: Mus musculus; assay: Anticonvulsant activity against maximal electroshock-induced seizures in ip dosed mouse; format: functional
[3] = species on record: Mus musculus; assay: Protective index, ratio of TD50 for mouse by rotarod test to ED50 for mouse by MES test; format: functional
[4] = system: Mus musculus; assay: Anticonvulsant activity against scMet-induced seizures in ip dosed mouse; format: functional
[5] = Neurotoxicity in ip dosed mouse by rotarod test; format: toxicity, organism-based; conditions: in vivo
[6] = system: Mus musculus; assay: Anticonvulsant activity against scMet-induced seizures in mouse at 300 mg/kg, ip after 4 hrs; format: functional, organism-based; parameters: dose 300 mg/kg
[7] = system: Rattus norvegicus; assay: Anticonvulsant activity against maximal electroshock-induced seizures in rat at 30 mg/kg, po after 0.5 hrs; format: functional, organism-based; parameters: dose 30 mg/kg
[8] = system: Rattus norvegicus; assay: Neurotoxicity in rat at 30 mg/kg, po after 2 hrs by rotarod test; format: toxicity, organism-based; parameters: dose 30 mg/kg, route oral; conditions: in vivo
[9] = Displacement of [3H]flunitrazepam from benzodiazepine receptor in rat brain cortex by scintillation counting; format: tissue-based
[10] = system: Mus musculus; assay: Neurotoxicity in mouse at 300 mg/kg, ip after 4 hrs by rotarod test; format: toxicity, organism-based; parameters: dose 300 mg/kg, route intraperitoneal; conditions: in vivo
[11] = system: Mus musculus; assay: Anticonvulsant activity against maximal electroshock-induced seizures in mouse at 300 mg/kg, ip after 4 hrs; format: functional, organism-based; parameters: dose 300 mg/kg
[12] = system: Rattus norvegicus; assay: Neurotoxicity in rat at 30 mg/kg, po after 0.25 hrs by rotarod test; format: toxicity, organism-based; parameters: dose 30 mg/kg, route oral; conditions: in vivo
[13] = system: Mus musculus; assay: Anticonvulsant activity against scMet-induced seizures in mouse at 100 mg/kg, ip after 4 hrs; format: functional, organism-based; parameters: dose 100 mg/kg
[14] = system: Mus musculus; assay: Neurotoxicity in mouse at 100 mg/kg, ip after 0.5 hrs by rotarod test; format: toxicity, organism-based; parameters: dose 100 mg/kg, route intraperitoneal; conditions: in vivo
[15] = system: Rattus norvegicus; assay: Neurotoxicity in rat at 30 mg/kg, po after 4 hrs by rotarod test; format: toxicity, organism-based; parameters: dose 30 mg/kg, route oral; conditions: in vivo
[16] = Displacement of [3H]nitrendipine from voltage-dependent calcium channel in rat brain cortex by scintillation counting; format: tissue-based
[17] = system: Mus musculus; assay: Anticonvulsant activity against maximal electroshock-induced seizures in mouse at 30 mg/kg, ip after 0.5 hrs; format: functional, organism-based; parameters: dose 30 mg/kg
[18] = system: Mus musculus; assay: Anticonvulsant activity against scMet-induced seizures in mouse at 30 mg/kg, ip after 4 hrs; format: functional, organism-based; parameters: dose 30 mg/kg
[19] = system: Rattus norvegicus; assay: Neurotoxicity in rat at 30 mg/kg, po after 0.5 hrs by rotarod test; format: toxicity, organism-based; parameters: dose 30 mg/kg, route oral; conditions: in vivo
[20] = system: Mus musculus; assay: Anticonvulsant activity against scMet-induced seizures in mouse at 30 mg/kg, ip after 0.5 hrs; format: functional, organism-based; parameters: dose 30 mg/kg
[21] = system: Mus musculus; assay: Neurotoxicity in mouse at 30 mg/kg, ip after 4 hrs by rotarod test; format: toxicity, organism-based; parameters: dose 30 mg/kg, route intraperitoneal; conditions: in vivo
[22] = system: Rattus norvegicus; assay: Anticonvulsant activity against maximal electroshock-induced seizures in rat at 30 mg/kg, po after 2 hrs; format: functional, organism-based; parameters: dose 30 mg/kg
[23] = system: Mus musculus; assay: Neurotoxicity in mouse at 100 mg/kg, ip after 4 hrs by rotarod test; format: toxicity, organism-based; parameters: dose 100 mg/kg, route intraperitoneal; conditions: in vivo
[24] = system: Mus musculus; assay: Anticonvulsant activity against maximal electroshock-induced seizures in mouse at 30 mg/kg, ip after 4 hrs; format: functional, organism-based; parameters: dose 30 mg/kg
[25] = system: Mus musculus; assay: Neurotoxicity in mouse at 30 mg/kg, ip after 0.5 hrs by rotarod test; format: toxicity, organism-based; parameters: dose 30 mg/kg, route intraperitoneal; conditions: in vivo
[26] = system: Rattus norvegicus; assay: Anticonvulsant activity against maximal electroshock-induced seizures in rat at 30 mg/kg, po after 1 hr; format: functional, organism-based; parameters: dose 30 mg/kg
[27] = system: Mus musculus; assay: Anticonvulsant activity against scMet-induced seizures in mouse at 300 mg/kg, ip after 0.5 hrs; format: functional, organism-based; parameters: dose 300 mg/kg
[28] = system: Mus musculus; assay: Anticonvulsant activity against maximal electroshock-induced seizures in mouse at 300 mg/kg, ip after 0.5 hrs; format: functional, organism-based; parameters: dose 300 mg/kg
[29] = system: Rattus norvegicus; assay: Neurotoxicity in rat at 30 mg/kg, po after 1 hr by rotarod test; format: toxicity, organism-based; parameters: dose 30 mg/kg, route oral; conditions: in vivo
[30] = system: Mus musculus; assay: Anticonvulsant activity against maximal electroshock-induced seizures in mouse at 100 mg/kg, ip after 0.5 hrs; format: functional, organism-based; parameters: dose 100 mg/kg
[31] = system: Mus musculus; assay: Neurotoxicity in mouse at 300 mg/kg, ip after 0.5 hrs by rotarod test; format: toxicity, organism-based; parameters: dose 300 mg/kg, route intraperitoneal; conditions: in vivo
[32] = system: Mus musculus; assay: Anticonvulsant activity against maximal electroshock-induced seizures in mouse at 100 mg/kg, ip after 4 hrs; format: functional, organism-based; parameters: dose 100 mg/kg
[33] = system: Mus musculus; assay: Anticonvulsant activity against scMet-induced seizures in mouse at 100 mg/kg, ip after 0.5 hrs; format: functional, organism-based; parameters: dose 100 mg/kg
[34] = system: Mus musculus; assay: Anticonvulsant activity against maximal electroshock-induced seizures in mouse at 10 mg/kg, ip after 0.5 hrs; format: functional, organism-based; parameters: dose 10 mg/kg
[35] = system: Mus musculus; assay: Neurotoxicity in mouse at 3 mg/kg, ip after 0.5 hrs by rotarod test; format: toxicity, organism-based; parameters: dose 3 mg/kg, route intraperitoneal; conditions: in vivo
[36] = system: Mus musculus; assay: Anticonvulsant activity against maximal electroshock-induced seizures in mouse at 3 mg/kg, ip after 0.5 hrs; format: functional, organism-based; parameters: dose 3 mg/kg
[37] = system: Mus musculus; assay: Neurotoxicity in mouse at 10 mg/kg, ip after 0.5 hrs by rotarod test; format: toxicity, organism-based; parameters: dose 10 mg/kg, route intraperitoneal; conditions: in vivo
[38] = system: Rattus norvegicus; assay: Anticonvulsant activity against maximal electroshock-induced seizures in rat at 30 mg/kg, po after 0.25 hrs; format: functional, organism-based; parameters: dose 30 mg/kg
[39] = system: Rattus norvegicus; assay: Anticonvulsant activity against maximal electroshock-induced seizures in rat at 30 mg/kg, po after 4 hrs; format: functional, organism-based; parameters: dose 30 mg/kg

| SMILES | Activity [6] | Neurotoxicity [8] | Neurotoxicity [10] | Activity [11] | Neurotoxicity [12] | Activity [13] | Neurotoxicity [15] | Activity [17] | Activity [18] | Neurotoxicity [19] | Activity [20] | Neurotoxicity [21] | Neurotoxicity [23] | Activity [24] | Neurotoxicity [25] | Activity [27] | Activity [28] | Neurotoxicity [29] | Activity [32] | Activity [33] | other results |
| --- | --- | --- | --- | --- | --- | --- | --- | --- | --- | --- | --- | --- | --- | --- | --- | --- | --- | --- | --- | --- | --- |
| O=C1NC(=O)C(c2ccccc2)(c2ccccc2)N1 [PHENYTOIN] | – | – | – | – | – | – | – | – | – | – | – | – | – | – | – | – | – | – | – | – | PI [1]: <0.9; ED50 [2]: 6.48 mg/kg; PI [3]: 6.6; ED50 [4]: > 50 mg/kg |
| CCCC(CCC)C(=O)[O-].[Na+] [VALPROATE SODIUM] | – | – | – | – | – | – | – | – | – | – | – | – | – | – | – | – | – | – | – | – | TD50 [5]: 483 mg/kg; ED50 [4]: 290 mg/kg |
| C[C@@H](CO)NCc1ccc2oc3cc(Cl)ccc3c(=O)c2c1 | inactive | Not Active | Not Active | Active | Not Active | inactive | Not Active | inactive | inactive | Not Active | inactive | Not Active | Not Active | inactive | Not Active | inactive | Active | Not Active | – | – | Activity [7]: inactive; EC50 [9]: 30 µM; Neurotoxicity [14]: Not Active; TD50 [5]: < 500 mg/kg; ED50 [2]: 73 mg/kg; EC50 [16]: 7600 nM; PI [3]: <6.851; ED50 [4]: > 350 mg/kg; Activity [22]: inactive; Activity [26]: inactive |
| COC(=O)C1=C(C)NC(C)=C(C(=O)OC)C1c1ccccc1[N+](=O)[O-] [NIFEDIPINE] | – | – | – | – | – | – | – | – | – | – | – | – | – | – | – | – | – | – | – | – | EC50 [16]: 1 nM |
| NC(=O)CNC(=O)c1ccc2oc3ccccc3c(=O)c2c1 | inactive | – | Not Active | inactive | – | inactive | – | inactive | inactive | – | inactive | Not Active | Not Active | inactive | Not Active | inactive | inactive | – | inactive | inactive | Neurotoxicity [14]: Not Active; Activity [30]: inactive; Neurotoxicity [31]: Not Active |
| CCC(O)CNCc1ccc2oc3cc(Cl)ccc3c(=O)c2c1 (racemic) | inactive | Not Active | Neurotoxic | Active | Not Active | inactive | Not Active | Active | inactive | Not Active | inactive | Not Active | – | inactive | – | inactive | Active | Not Active | Active | inactive | Activity [34]: inactive; Neurotoxicity [35]: Not Active; Activity [36]: inactive; Neurotoxicity [37]: Not Active; Activity [30]: Active; Neurotoxicity [31]: Neurotoxic |
| CC(C)(CCO)NCc1ccc2oc3cc(Cl)ccc3c(=O)c2c1 | inactive | Not Active | Not Active | inactive | Not Active | inactive | Not Active | inactive | inactive | Not Active | inactive | Not Active | Not Active | inactive | – | inactive | Active | Not Active | inactive | inactive | Activity [7]: inactive; Neurotoxicity [14]: Not Active; Activity [38]: inactive; Activity [39]: inactive; Activity [22]: inactive; Activity [26]: inactive |
| NC(=O)N1c2ccccc2C=Cc2ccccc21 [CARBAMAZEPINE] | – | – | – | – | – | – | – | – | – | – | – | – | – | – | – | – | – | – | – | – | PI [1]: <1; EC50 [16]: 1200 nM; ED50 [4]: > 50 mg/kg |
| CC(CCl)NCc1ccc2oc3cc(Cl)ccc3c(=O)c2c1.Cl (racemic) | inactive | Not Active | – | inactive | Not Active | inactive | Not Active | inactive | inactive | Not Active | inactive | Not Active | Not Active | inactive | Not Active | inactive | inactive | Not Active | inactive | inactive | Activity [7]: inactive; Activity [30]: inactive; Activity [22]: inactive; Activity [26]: inactive |
| CC[C@@H](CO)NCCOc1c(C)cccc1C | – | – | – | – | – | – | – | – | – | – | – | – | – | – | – | – | – | – | – | – | ED50 [2]: 7.57 mg/kg; PI [3]: 4.55 |
| C[C@H](CO)NCc1ccc2oc3cc(Cl)ccc3c(=O)c2c1 | inactive | Not Active | Not Active | Active | Not Active | inactive | Not Active | inactive | inactive | Not Active | inactive | Not Active | Not Active | inactive | Not Active | inactive | Active | Not Active | inactive | inactive | Activity [7]: inactive; PI [1]: <0.96; TD50 [5]: 483 mg/kg; Activity [38]: inactive; ED50 [2]: 77.4 mg/kg; PI [3]: 6.23; ED50 [4]: > 500 mg/kg; Activity [26]: inactive |
| CC[C@@H](CO)NCc1ccc2oc3cc(Cl)ccc3c(=O)c2c1 | inactive | Not Active | Neurotoxic | Active | Not Active | inactive | Not Active | inactive | inactive | Not Active | inactive | Not Active | – | inactive | Not Active | inactive | Active | Not Active | inactive | inactive | Activity [7]: inactive; Activity [30]: Active; Activity [38]: inactive; Neurotoxicity [31]: Neurotoxic; Activity [22]: inactive |
| CN1C(=O)CN=C(c2ccccc2)c2cc(Cl)ccc21 [DIAZEPAM] | – | – | – | – | – | – | – | – | – | – | – | – | – | – | – | – | – | – | – | – | EC50 [9]: 0.7 µM |
| O=C(NCCCCO)c1ccc2oc3ccccc3c(=O)c2c1 | inactive | – | Not Active | inactive | – | inactive | – | inactive | inactive | – | inactive | Not Active | Not Active | inactive | Not Active | inactive | inactive | – | inactive | inactive | Neurotoxicity [14]: Not Active; Activity [30]: inactive; Neurotoxicity [31]: Not Active |
